Values of other authors in US8828934B2, “Mnk kinase homologous proteins involved in the regulation of energy homeostasis and organelle metabolism” (Boehringer Ingelheim International GmbH, priority 2001, dated 2014).

Tests used:
[1] = system: Mnk2 (Mnk2a or Mnk2b) or Mnk1; conditions: compound added to cell culture cells transfected with Mnk2 (Mnk2a or Mnk2b) or Mnk1
[2] = not cytotoxic up to this concentration

## Nc1ncnc2n[nH]c(Nc3ccc(F)cc3)c12 [CGP57380]
[1]
  reduction in phosphorylated eIF4E: strong reduction in phosphorylated eIF4E
[2]
  concentration up to which not cytotoxic: > 30 µM
